Test results from patent US10508089B2, “Use of N-(1,3,4-Oxadiazol-2-yl)arylcarboxamides or their salts for controlling unwanted plants in areas of transgenic crop plants being tolerant to HPPD inhibitor herbicides” (BASF SE, priority 2014, dated 2019).
Where two headings read alike, the source gives them in different places.

What was measured:
[1] = tested on: T2 soybean events expressing PfHPPD-W336 (PfHPPD-G336W); assay type: in vivo; conditions: 14 days after treatment
[2] = tested on: T3 cotton events expressing PfHPPD-Evo33; assay type: in vivo; conditions: 200 g Al/ha, post-emergence V3, scored after 14 days, field

`Cc1nnc(NC(=O)c2ccc(C(F)(F)F)c(S(C)(=O)=O)c2C)o1` [Compound 2-145] was tested, and the “Number of plants categorized herbicide tolerance “0” (marginal; 41%-100% damaged leaf area)” value (“Number … (marginal; 41%-100% damaged leaf area)” below) ([1]; 6.25 g Al/ha, total 12) was 1, the “Number of plants categorized herbicide tolerance “1” (moderate; 26%-40% damaged leaf area)” value (from here on “Number … (moderate; 26%-40% damaged leaf area)”) ([1]; 6.25 g Al/ha, total 12) was 0 and the “Number of plants categorized herbicide tolerance “2” (good; 16%-25% damaged leaf area)” value (from here on “Number … (good; 16%-25% damaged leaf area)”) ([1]; 6.25 g Al/ha, total 12) was 0. For the same molecule, the “Number of plants categorized herbicide tolerance “3” (high; less than or equal to 15% damaged leaf area)” value ([1]; 6.25 g Al/ha, total 12) was 11, the “Number … (marginal; 41%-100% damaged leaf area)” value ([1]; 25 g Al/ha, total 16) was 0 and the “Number … (moderate; 26%-40% damaged leaf area)” value ([1]; 25 g Al/ha, total 16) was 2. For the same molecule, the “Number … (good; 16%-25% damaged leaf area)” value ([1]; 25 g Al/ha, total 16) was 3, the “Number of plants categorized herbicide tolerance “3” (high; less than or equal to 15% damaged leaf area)” value ([1]; 25 g Al/ha, total 16) was 11 and the “Number … (marginal; 41%-100% damaged leaf area)” value ([1]; 50 g Al/ha, total 4) was 0. The “Number … (moderate; 26%-40% damaged leaf area)” value ([1]; 50 g Al/ha, total 4) was 0, the “Number … (good; 16%-25% damaged leaf area)” value ([1]; 50 g Al/ha, total 4) was 1 and the “Number of plants categorized herbicide tolerance “3” (high; less than or equal to 15% damaged leaf area)” value ([1]; 50 g Al/ha, total 4) was 3. For the same molecule, the “Number … (marginal; 41%-100% damaged leaf area)” value ([1]; 75 g Al/ha, total 4) was 0, the “Number … (moderate; 26%-40% damaged leaf area)” value ([1]; 75 g Al/ha, total 4) was 1 and the “Number … (good; 16%-25% damaged leaf area)” value ([1]; 75 g Al/ha, total 4) was 0. The “Number of plants categorized herbicide tolerance “3” (high; less than or equal to 15% damaged leaf area)” value ([1]; 75 g Al/ha, total 4) was 3, the “Average maximum phytotoxicity scoring” value ([2]; cotton event Evo33/1) was 3 (“3” = high tolerance; 0%-10% damaged leaf area) and the “Average maximum phytotoxicity scoring” value ([2]; cotton event Evo33/2) was 3 (“3” = high tolerance; 0%-10% damaged leaf area). For the same molecule, the “Average maximum phytotoxicity scoring” value ([2]; cotton event Evo33/3) was 3 (“3” = high tolerance; 0%-10% damaged leaf area), the “Average maximum phytotoxicity scoring” value ([2]; cotton event Evo33/4) was 3 (“3” = high tolerance; 0%-10% damaged leaf area) and the “Average maximum phytotoxicity scoring” value ([2]; cotton event Evo33/5) was 3 (“3” = high tolerance; 0%-10% damaged leaf area). For the same molecule, the “Average maximum phytotoxicity scoring” value ([2]; cotton event Evo33/6) was 3 (“3” = high tolerance; 0%-10% damaged leaf area).
